{"source": "patent US20240058363A1", "about": "(Emyria, priority 2020, published 2024)", "test_system": "symptoms of insomnia", "experiment": "Insomnia Severity Index (ISI) score in patients treated with CBD only", "assay_type": "in vivo, human", "set-up": "key to Change in ISI score, Visit 1 coefficient in model with interaction terms / Change in ISI score between Visit 0 and Visit 1, by initial assessment category / Change in ISI score between Visit 0 and Visit 3 (third follow-up): change in Insomnia Severity Index (7-item self-report) score", "method": "Insomnia may present as disturbed sleep, inability to get to sleep, inability to stay asleep and/or sleep that leaves the subject tired upon waking. The insomnia may be assessed using the Insomnia Severity Index (ISI) 7-item self-report questionnaire. […] More importantly perhaps, this global measure has been employed in number of recent clinical trials to assess the responses in insomnia to a wide variety of treatments.\nPatients were assessed for inclusion/exclusion using the same screening criteria and population criteria collected for evaluation as in Example 1. Dosing regimens were the same as Example 1.\nColumn (1) first presents results from a pooled specification with a time specific dummy variable capturing the first follow-up visit (i.e., Visit 1) as the sole explanatory variable. […] Notice that the constant term (i.e., the intercept) reflects the average ISI score of 14.145 at baseline.\nColumn (2) then incorporates patient-fixed effects. Note that when including fixed effects at the person level, the constant term is dropped from the regression, as it is differenced out by the fixed effects estimator—in addition to any other (un)observable time-invariant individual characteristics which may influence ISI scores (such as personality traits or beliefs). As for our coefficient of interest, it continues to emerge as negative and statistically significant. In fact, it remains virtually unchanged from column (1) since the pooled data contains exactly two observations for each patient.\nFinally, column (3) introduces interaction terms between the time dummy variable and binary indicators of starting with an ISI score in the ‘subthreshold insomnia’, ‘clinical insomnia (moderate severity)’, or ‘clinical insomnia (severe)’ category at baseline. The reference category here is determined by patients in the ‘no clinically significant insomnia’ category. Consistent with the visuals from FIG. 1, the reduction in insomnia score at the first follow-up is primarily driven by those who start in the ‘subthreshold insomnia’ category or higher at baseline.\nExploring this issue of persistence further, Table 9 presents regression-equation checks. In particular, column (1) replicates the benchmark results showing the change in […] between baseline and the first follow-up visit. Columns (2) and columns (3) then re-estimate the results between baseline and the second follow-up visit, and baseline and the third follow-up visit respectively.", "note": "Marks after values point to notes of the source that are not given here."}
{"smiles": "C=C(C)C1CCC(C)=CC1c1c(O)cc(CCCCC)cc1O", "note": "(stereo not shown) [cannabidiol, 2-[3-methyl-6-(1-methylethenyl)-2-cyclohexen-1-yl]-5-pentyl-1,3-benzenediol]", "values": [{"measurement": "Persistence of decrease in insomnia severity", "setting": "after 4 and 6 months (Visits 2 and 3) of CBD only treatment", "result": "decrease in insomnia severity persists"}, {"measurement": "Decrease in insomnia score", "setting": "average treatment window of slightly under 13 days", "result": "−5.0"}, {"measurement": "Fall in insomnia score", "setting": "mean treatment horizon of 22 days", "result": "−4.1"}, {"measurement": "Decline in insomnia score", "setting": "mean treatment period of 7 days", "result": "−7.2"}, {"measurement": "Change in ISI score between Visit 0 and Visit 3 (third follow-up)", "setting": "patient fixed effects, N 292, baseline mean 14.145, about 6 months, SE 0.854, p < 0.001", "result": "−4.313***"}, {"measurement": "Change in ISI score between Visit 0 and Visit 2 (second follow-up)", "setting": "patient fixed effects, N 349, baseline mean 14.145, about 4 months, SE 0.581, p < 0.001", "result": "−4.141***"}, {"measurement": "Response of ISI score to treatment", "setting": "patients beginning in the 'no clinically significant insomnia' category", "result": "do not exhibit any meaningful response"}, {"measurement": "Mean ISI scores by baseline ISI category, initial versus first follow-up visit (FIG. 10)", "setting": "patients starting with subthreshold, moderate and severe clinical insomnia, mean 46.9 days between visits", "result": "significantly lower mean ISI scores in the first follow-up visit"}, {"measurement": "Average ISI scores over the first six months (FIG. 13)", "setting": "patients with subthreshold and clinically significant insomnia scores at baseline", "result": "significant reduction over the 6-month period"}, {"measurement": "Short-term change in ISI score from baseline to first follow-up (Visit 1 coefficient)", "setting": "pooled specification, no patient fixed effects, 228 patients, baseline mean 14.145, average 46.9 days, SE 0.393, p < 0.001", "result": "−3.254***"}, {"measurement": "Change in ISI score between visits versus cannabidiol dosage", "setting": "prescribed between approximately 10 mg to 200 mg", "result": "report less insomnia at the first follow-up visit"}, {"measurement": "Change in ISI score, Visit 1 coefficient in model with interaction terms", "setting": "reference category 'no clinically significant insomnia' at baseline, patient fixed effects, 228 patients, SE 0.646, not significant", "result": 0.959}, {"measurement": "Change in ISI score, Visit 1 × subthreshold insomnia interaction coefficient", "setting": "relative to 'no clinically significant insomnia', patient fixed effects, 228 patients, SE 0.901, p < 0.001", "result": "−3.308***"}, {"measurement": "Change in ISI score, Visit 1 × clinical insomnia (moderate severity) interaction coefficient", "setting": "relative to 'no clinically significant insomnia', patient fixed effects, 228 patients, SE 0.970, p < 0.001", "result": "−6.231***"}, {"measurement": "Change in ISI score, Visit 1 × clinical insomnia (severe) interaction coefficient", "setting": "relative to 'no clinically significant insomnia', patient fixed effects, 228 patients, SE 1.039, p < 0.001", "result": "−7.122***"}, {"measurement": "Change in ISI score between Visit 0 and Visit 1, by initial assessment category", "setting": "subsample Clinical insomnia (moderate severity), 70 patients, baseline mean 17.757, SE 0.726, p < 0.001", "result": "−5.271***"}, {"measurement": "Change in ISI score between Visit 0 and Visit 1, by initial assessment category", "setting": "subsample Clinical insomnia (severe), 43 patients, baseline mean 24.256, SE 0.823, p < 0.001", "result": "−6.163***"}, {"measurement": "Change in ISI score between Visit 0 and Visit 1, by initial assessment category", "setting": "subsample No clinically significant insomnia, 49 patients, baseline mean 3.857, SE 0.652, not significant", "result": 0.959}, {"measurement": "Change in ISI score between Visit 0 and Visit 1, by initial assessment category", "setting": "subsample Subthreshold insomnia, 66 patients, baseline mean 11.364, SE 0.631, p < 0.001", "result": "−2.349***"}]}
